# Data reported in PubChem BioAssay (NCI).
#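 Test compounds were applied to cells in 96-well plates for 48 hours at 5 doses. GI50: concentration for 50% inhibition of growth. Definition used: TGI = concentration required for complete inhibition of growth.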
# Key:
# Test in all cases: NCI tumour cell line growth inhibition, 48 h
# CAKI-1 renal = system: CAKI-1 renal
# HCT-116 colon = system: HCT-116 colon
# HL-60(TB) leukemia = system: HL-60(TB) leukemia
# HOP-62 NSCLC = system: HOP-62 NSCLC
# IGROV1 ovarian = system: IGROV1 ovarian
# MALME-3M melanoma = system: MALME-3M melanoma
# NCI-H460 lung = system: NCI-H460 lung
# OVCAR-3 ovarian = system: OVCAR-3 ovarian
# SF-268 CNS = system: SF-268 CNS
# SW-620 colon = system: SW-620 colon
SMILES,GI50 (CAKI-1 renal) [µM],TGI (CAKI-1 renal) [µM],GI50 (HCT-116 colon) [µM],TGI (HCT-116 colon) [µM],GI50 (HL-60(TB) leukemia) [µM],TGI (HL-60(TB) leukemia) [µM],GI50 (HOP-62 NSCLC) [µM],TGI (HOP-62 NSCLC) [µM],GI50 (IGROV1 ovarian) [µM],TGI (IGROV1 ovarian) [µM],GI50 (MALME-3M melanoma) [µM],TGI (MALME-3M melanoma) [µM],GI50 (NCI-H460 lung) [µM],TGI (NCI-H460 lung) [µM],GI50 (OVCAR-3 ovarian) [µM],TGI (OVCAR-3 ovarian) [µM],GI50 (SF-268 CNS) [µM],TGI (SF-268 CNS) [µM],GI50 (SW-620 colon) [µM],TGI (SW-620 colon) [µM]
COc1cc(C(O)c2nc3ccccc3s2)cc(OC)c1OC (stereo not given),4.89,93.9,45.4,> 100,14.2,> 100,43.8,> 100,34.3,> 100,21.4,> 100,30.9,> 100,88.9,> 100,> 100,> 100,> 100,> 100
Cn1ccnc1C(=O)/C=C/c1ccc(CC(=O)Nc2ccc(S(F)(F)(F)(F)F)cc2)cc1,2.66,5.72,0.823,2.87,0.62,4.47,2.58,6.18,2.62,7.29,2.95,6.65,2.25,7.58,2.18,4.91,1.88,4.86,1.03,4.09
CC(/C(=N/NC(=O)C(N)=O)c1c(Cl)ccc(Cl)c1O)C1(O)C(=O)Nc2ccccc21 (stereo not given),–,> 100,–,> 100,–,68,–,> 100,–,> 100,–,> 100,–,78.9,–,> 100,–,> 100,–,> 100
CS(=O)(=O)OCCn1cnc2nc(NC(=O)c3ccccc3)[nH]c(=O)c21,–,> 100,–,> 100,–,> 100,–,> 100,–,> 100,–,> 100,–,> 100,–,> 100,–,> 100,–,> 100
O=C1c2ccc3c4c5ccc(c24)C(=O)N1CCCOCCCCOCCCNCc1ccc(cc1)CNCCCOCCCCOCCCN(C3=O)C5=O,0.834,1.71,0.888,1.9,1.01,2.03,1.15,3.31,0.791,1.6,0.628,1.3,0.972,2,0.766,1.79,0.972,2.43,0.964,2.06
C=CC1=C[C@@H]2[C@@H]3O[C@]4(CC[C@H](O4)[C@@H](C)C[C@@H](O)C3=O)C[C@H](O)C3=NCC[C@@]32CC1,< 0.00333,0.00617,< 0.00333,0.00371,< 0.00333,< 0.00333,< 0.00333,0.0075,< 0.00333,0.00337,< 0.00333,< 0.00333,< 0.00333,< 0.00333,< 0.00333,< 0.00333,< 0.00333,0.00575,< 0.00333,0.00523
CCOC(=O)C1=C(NNC(=O)Cc2ccccc2)CSC1=Nc1ccccc1,–,> 100,–,> 100,–,> 100,–,> 100,–,> 100,–,> 100,–,> 100,–,> 100,–,> 100,–,> 100
NC1=C(Br)C(=O)c2ncccc2C1=O,–,2.84,–,0.807,–,2.81,–,1.67,–,2.62,–,1.4,–,1.16,–,2.33,–,1.92,–,1.84
COC1(O)C(=O)c2ccccc2OC1(OC)c1ccccc1 (stereo not given),–,> 100,–,> 100,–,> 100,–,> 100,–,> 100,–,> 100,–,> 100,–,> 100,–,> 100,–,> 100
Nc1ncnc2c1ncn2CC(O)C(=O)O (stereo not given),–,> 100,–,> 100,–,> 100,–,> 100,–,> 100,–,> 100,–,> 100,–,> 100,–,> 100,–,> 100
CC(=O)Nc1ccc(/C=N\N2C(=O)c3ccccc3C2=O)cc1,–,> 100,–,> 100,–,> 100,–,> 100,–,> 100,–,> 100,–,> 100,–,> 100,–,> 100,–,> 100
CCc1ccccc1N1CCN(C(=O)c2cc(OC)c(OC)c(OC)c2)CC1,–,43,–,16.5,–,1.62,–,> 46.2,–,> 51.4,–,55.9,–,2.8,–,0.463,–,> 100,–,> 100
CN(C)CCNC(=O)c1ccc(C(=O)NCCN(C)C)c2nc3ccccc3cc12,–,9.09,–,6.08,–,9.5,–,4.45,–,> 50.2,–,2.97,–,2.79,–,9.91,–,6.79,–,9.56
CN(C)c1ccc(-c2cc(-c3ccc(Nc4nc(Nc5ccccc5)nc(Nc5ccc(Cl)cc5)n4)cc3)nc(N)n2)cc1,1.61,7.76,3.51,15.2,3.2,12.2,8.01,42.4,2.07,62,4.07,49.2,3.71,14.1,5.77,28.9,6.69,56.4,6.86,21.8
C=CCNCCCN1C(=O)c2ccc3c4c(ccc(c24)C1=O)C(=O)N(CCCNCC=C)C3=O,0.34,1.97,0.279,3.39,0.383,1.41,0.372,1.72,0.325,1.2,0.258,0.617,0.195,0.448,0.298,0.889,0.557,4.41,0.265,1.51
CCCCCCCCC(=O)N(C)C1C2CN3CCC(O2)C13 (stereo not given),–,> 100,–,> 100,–,> 100,–,> 100,–,> 100,–,> 100,–,> 100,–,> 100,–,> 100,–,> 100
O=C1/C(=C/c2ccc([N+](=O)[O-])o2)Oc2ccc(Br)cc21,2.31,6.59,1.9,3.46,6.7,25.7,15,34.4,1.94,4.1,1.92,4.74,10.6,24.2,1.99,3.56,2.04,4.16,1.69,3.23
[C-]#[O+].[C-]#[O+].[C-]#[O+].[C-]#[O+].[Ir].[Ir].[O-]c1ccc2ccccc2c1C=Nc1ccc(N=Cc2c([O-])ccc3ccccc23)cc1,> 100,> 100,> 100,> 100,75.5,> 100,> 100,> 100,> 100,> 100,> 100,> 100,> 100,> 100,> 100,> 100,> 100,> 100,> 100,> 100
CCN(CCNc1ccc(C)c2sc3cc(Cl)ccc3c(=O)c12)CC(C)O (stereo not given),0.643,2.49,1.66,3.02,1.7,3.35,1.52,2.86,1.25,2.78,1.36,2.77,1.78,3.34,3.62,14.3,3.29,16,1.8,3.51
C/C([O-])=C1\Cc2ccccc2C1=O.C/C([O-])=C1\Cc2ccccc2C1=O.CC[O-].CC[O-].[Ti+4],36.5,> 100,17.3,> 61.3,13.1,50.8,13,50.3,8.46,39.5,18.8,> 59.8,10.3,44.7,24,> 100,17.1,47.3,24.8,> 84.9
CN(c1ccc(NC(=O)Nc2ccc(OC(F)(F)F)cc2)cc1)c1ccnc(Nc2cccc(S(N)(=O)=O)c2)n1,6.45,20.8,1.73,5.7,2.7,6.36,3.71,8.1,1.73,7.45,3.84,8.34,0.428,4.51,3.05,6.69,2.34,6.74,2.93,6.62
Cc1ccc(S(=O)(=O)NNC(=O)c2sc(-c3nc(C)c(C(=O)NNS(=O)(=O)c4ccc(C)cc4)s3)nc2C)cc1,–,> 100,–,> 100,–,> 100,–,> 100,–,> 100,–,> 100,–,> 100,–,> 100,–,> 100,–,> 100
CC1CC2C(=O)N(c3ccccc3)C(=O)C2c2c1c1ccccc1n2Cc1ccccc1 (stereo not given),–,> 100,–,> 100,–,> 100,–,> 100,–,> 100,–,> 100,–,> 100,–,> 100,–,> 100,–,> 100
CC(CN1CCN(C)CC1)CN1c2ccccc2Sc2ccc(C(F)(F)F)cc21 (stereo not given),2.6,11,1.68,3.07,1.92,4.1,1.71,3.17,2.77,10.2,1.72,3.72,1.93,3.84,2.04,4.16,3.1,9.29,1.83,3.67
Cc1nc2sc(C(=O)Nc3cccc4ccccc34)c(N)c2cc1C(=O)/C=C/c1ccccc1,0.422,1.44,0.174,0.631,0.353,1.82,0.311,2.71,0.301,1.3,0.343,> 34.9,0.411,2.34,0.181,0.593,1.15,> 32.4,0.21,1.66
C[C@H]1[C@H](C)CC[C@]2(C(=O)N3CCN(C)CC3)CC[C@]3(C)C(=CC[C@@H]4[C@@]5(C)C/C(=C/c6cccnc6)C(=O)C(C)(C)[C@@H]5CC[C@]43C)[C@H]12,1.22,2.46,0.669,1.89,0.487,1.86,1.58,3.11,1.52,3.31,1.08,2.45,0.891,2.45,0.969,2.36,1.47,3.05,0.924,2.51
COc1ccc(C(=O)/C=C/c2c(C(F)(F)F)nc3sccn23)cc1OC,2.46,> 100,1.4,68.7,1,3.86,6,43,3.15,> 100,5.92,> 100,1.94,6.65,2.12,6.14,3.44,> 100,1.49,> 100
COc1ccc(C/C(C)=C(\c2ccc(OCCN3CCOCC3)cc2)c2ccc(OC(=O)Cc3ccccc3)cc2)cc1,0.729,2.13,0.496,0.989,0.553,1.26,0.621,1.17,1.13,5.03,0.531,1.03,0.713,1.53,0.766,1.66,0.96,12.8,0.742,1.8
N#C/C(=C1\NN=C(N)C(c2ccc(Cl)cc2)=C1O)c1ccc(Cl)cc1,–,> 100,–,> 100,–,> 100,–,> 100,–,> 100,–,> 100,–,> 100,–,> 100,–,> 100,–,> 100
